# From patent publication US6818663B2, “Diaminothiazoles” (Hoffmann-La Roches, priority 2002, dated 2004)
# Key:
# human cyclin B-CDK1 = human cyclin B-CDK1 (Homo sapiens, UniProt P06493); assay: FlashPlate kinase assay, cyclin B-CDK1, Rb substrate; assay type: biochemical; conditions: recombinant cyclin B-CDK1, Rb phosphorylation, 1 μM ATP
# In short: (§1)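 Recombinant human cyclin–CDK complexes, co-expressed in insect cells, phosphorylated His-tagged Rb (aa 386-928) coated on FlashPlates at 10 μg/ml. Reaction used 1 μM ATP plus 4 nM ^33P-ATP and 20 mM MgCl2 for 30 min at room temperature. % inhibition came from scintillation counts against no-enzyme and no-compound wells, and IC50 was the concentration halving radiolabel incorporation.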
# human cyclin E-CDK2 = human cyclin E-CDK2 (Homo sapiens, UniProt P24941); assay: FlashPlate kinase assay, cyclin E-CDK2, Rb substrate; assay type: biochemical; conditions: recombinant cyclin E-CDK2, Rb phosphorylation, 1 μM ATP
# In short: as §1
# human cyclin D1-CDK4 = human cyclin D1-CDK4 (Homo sapiens, UniProt P11802); assay: FlashPlate kinase assay, cyclin D1-CDK4, Rb substrate; assay type: biochemical; conditions: recombinant cyclin D1-CDK4, Rb phosphorylation, 1 μM ATP
# Chain of human cyclin D1-CDK4 (P11802 whole entry): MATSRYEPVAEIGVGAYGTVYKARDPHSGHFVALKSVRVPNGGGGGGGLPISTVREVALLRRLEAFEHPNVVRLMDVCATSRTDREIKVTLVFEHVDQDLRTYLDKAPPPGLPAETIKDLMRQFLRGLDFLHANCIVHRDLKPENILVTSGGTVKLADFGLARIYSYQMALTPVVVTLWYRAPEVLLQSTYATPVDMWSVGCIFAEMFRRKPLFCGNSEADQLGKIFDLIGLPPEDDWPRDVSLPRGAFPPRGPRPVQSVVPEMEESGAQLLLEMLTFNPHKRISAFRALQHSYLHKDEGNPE
# Chain of human cyclin D1-CDK4 (P24385 whole entry partner): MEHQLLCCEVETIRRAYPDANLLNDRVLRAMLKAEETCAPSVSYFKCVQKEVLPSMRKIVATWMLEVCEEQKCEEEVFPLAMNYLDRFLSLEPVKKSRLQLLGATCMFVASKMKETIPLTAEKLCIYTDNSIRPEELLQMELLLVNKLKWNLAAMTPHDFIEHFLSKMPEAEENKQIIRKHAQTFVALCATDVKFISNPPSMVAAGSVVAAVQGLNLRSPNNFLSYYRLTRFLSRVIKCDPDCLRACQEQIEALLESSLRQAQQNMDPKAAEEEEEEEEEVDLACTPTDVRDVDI
# In short: as §1
# [1] = system: HCT116, a colorectal carcinoma cell line; assay: Tetrazolium dye proliferation assay (MTT assay); assay type: cell-based; conditions: Homo sapiens, HCT-116, HCT116 cells, inhibition of cell proliferation
# In short: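 HCT116 cells in McCoy's 5A + 10% FCS, plated overnight, then dosed in duplicate with serial dilutions (final DMSO 0.3%) and incubated to growth-curve time points. MTT at 1 mg/ml for 2.5-3 h, formazan in ethanol, A570/650. IC50 by linear regression of log concentration vs % inhibition relative to blank and DMSO controls.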
# Chain of human cyclin B-CDK1 (P06493 whole entry, the tested form may be a part): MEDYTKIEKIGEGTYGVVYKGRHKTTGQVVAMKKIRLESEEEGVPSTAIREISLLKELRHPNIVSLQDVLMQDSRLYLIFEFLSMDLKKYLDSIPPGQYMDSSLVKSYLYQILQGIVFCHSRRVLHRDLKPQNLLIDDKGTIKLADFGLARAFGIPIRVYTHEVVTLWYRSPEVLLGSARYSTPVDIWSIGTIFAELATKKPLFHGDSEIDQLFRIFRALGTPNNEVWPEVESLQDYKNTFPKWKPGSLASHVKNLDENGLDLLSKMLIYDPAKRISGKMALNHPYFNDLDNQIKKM
# Chain of human cyclin B-CDK1 (P14635 whole entry partner, the tested form may be a part): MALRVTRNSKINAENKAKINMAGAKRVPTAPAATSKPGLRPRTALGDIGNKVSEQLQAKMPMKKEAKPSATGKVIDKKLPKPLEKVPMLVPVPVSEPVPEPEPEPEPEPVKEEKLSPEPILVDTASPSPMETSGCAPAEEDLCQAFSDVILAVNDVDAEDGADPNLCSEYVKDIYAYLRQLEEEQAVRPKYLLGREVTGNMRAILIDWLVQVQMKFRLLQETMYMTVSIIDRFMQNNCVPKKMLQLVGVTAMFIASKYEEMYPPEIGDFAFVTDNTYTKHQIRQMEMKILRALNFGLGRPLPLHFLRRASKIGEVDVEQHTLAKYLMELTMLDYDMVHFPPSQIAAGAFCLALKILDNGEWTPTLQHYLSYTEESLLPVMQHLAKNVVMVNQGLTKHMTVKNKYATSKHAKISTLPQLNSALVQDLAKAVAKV
Compound,IC50 (human cyclin B-CDK1) [nM],IC50 (human cyclin E-CDK2) [nM],IC50 (human cyclin D1-CDK4) [nM],IC50 [1] [nM],melting point
"CCNCCOc1ccc(Nc2nc(N)c(C(=O)c3ccc4c(c3)OCO4)s2)cc1 [Example 133, [4-Amino-2-[4-(2-ethylamino-ethoxy)-phenylamino]-thiazol-5-yl]-benzo[1,3]dioxol-5-yl-methanone]",338,3170,29,3000,
"CC(C)NCCOc1ccc(Nc2nc(N)c(C(=O)c3ccc4c(c3)OCO4)s2)cc1 [Example 137, [4-Amino-2-[4-(2-isopropylamino-ethoxy)-phenylamino]-thiazol-5-yl]-benzo[1,3]dioxol-5-yl-methanone]",457,2750,19,1730,
"COc1cccc(C(=O)c2sc(Nc3ccc(OCCN(C)C)cc3)nc2N)c1 [Example 144, [4-Amino-2-[4-(2-dimethylaminoethoxy)-phenylamino]-thiazol-5-yl]-(3-methoxy-phenyl)-methanone]",2490,4540,87,,130 °C (dec.)
"CCN(CC)CCOc1ccc(Nc2nc(N)c(C(=O)c3cccc(OC)c3)s2)cc1 [Example 145, [4-Amino-2-[4-(2-diethylaminoethoxy)-phenylamino]-thiazol-5-yl]-(3-methoxy-phenyl)-methanone]",219,900,41,,118 to 123 °C
"COc1cccc(C(=O)c2sc(Nc3ccc(OCCn4ccnc4)cc3)nc2N)c1 [Example 146, [4-Amino-2-[4-(2-imidazol-1-yl-ethoxy)-phenylamino]-thiazol-5-yl]-(3-methoxy-phenyl)-methanone]",600,814,67,4190,185 to 190 °C
